Test results as given in patent publication US9125898B2, “Acetam derivatives for pain relief” (NEUROTUNE AG, priority 2008, dated 2015).
Entries after “also recorded” stand apart in the source; their conditions may differ.

Assays:
[1] = test system: MIA induced hyperalgesia in the rat; assay: MIA induced hyperalgesia in the rat (paw-pressure test); assay type: in vivo; conditions: for Mechanical threshold, before treatment, first day basal: baseline; for Effect of a single oral dose on mechanical threshold (in words): single oral dose after saline b.i.d. for 14 days (NT-11624 150 mg/kg, tramadol 40 mg/kg); for Antihyperalgesic activity after the last treatment (in words): treatment for 14 days b.i.d. p.o. (NT-11624 150 mg/kg, tramadol 40 mg/kg)
Description: Peripheral neuropathic induced in rats by administration into the left knee joint of MIA mimics chronic pain condition of osteoarthritis found in a large part of population over 60 years. The MIA test represents an useful and predictive model to study the anti-hyperalgesic potential of a drug in human osteoarthritic condition.
Drugs: The following substances were used: NT-11624 (batch n 66-MM3/16 supplied by Brane Discovery Sri, Gerenzano Italy) and tramadol (Tocris, UK). […] Control rats received saline only.
Sodium monoiodoacetate injection: A single intra-articular injection of sodium iodoacetate (MIA) was introduced into the right knee joint. […] Briefly, rats were deeply anaesthetized by ethylic ether. Following abolition of the hindpaw pinch withdrawal reflex, a 27-gauge needle was introduced into the joint cavity between the tibial plateau and femoral condyles. Once in place, 2 mg of MIA were solubilized in a volume of 25 ul and injected into the joint and the animal was allowed to recover for 14 days prior to pain assessment. It has consistently been shown that this dose of MIA causes osteoarthritic-like focal lesions in articular cartilage and subchondral bone thickening 14 days after administration Guingamp C. et al. Arthritis Rheum 40, 1670-9 (1997). Therefore this model can easily and quickly reproduce osteoarthritic-like lesions and functional impairment in rats, similar to that observed in human disease.
The administration of MIA induces in rats a hyperalgesic response to mechanical stimuli that reaches its statistical significance 5 days after administration and persists for 4 weeks (Fernihough et al. Pain 112:83-93 (2004)).
Control rats were treated with an equal volume of saline. […]
Starting from day 17 after MIA injection, paw pressure tests were performed.
Mechanical hyperalgesia: Paw mechanical sensitivity was determined using a Randall & Selitto apparatus exerting a force that increases at constant rate (32 g/s). The stimulus at which rats withdrawn the paw was evaluated before treatment (First day basal) and at the end of the treatment as following: before last treatment (pre-dose), and after last treatment (15, 30, 45, 60 min, 24, 48 and 72 h).
Results represent the mean of mechanical thresholds expressed as grams. To avoid any possible damage to the animal paw the maximum applied force was fixed at 240 g.

[2] = test system: ddC induced mechanical allodynia in rats; assay: ddC induced mechanical allodynia in rats, von Frey test; assay type: in vivo, rat; conditions: for Reversal of ddC-induced neuropathy (mechanical threshold, von Frey): FIG. 4, 15 min after drug administration
Protocol: Painful peripheral NP may be induced in rats by i.v. administration of 2′,3′-dideoxycytidine (ddC) mimicking what is seen in AIDS patients undergoing antiviral therapy. The ddC test represents a useful and predictive model to study molecules with analgesic potential in human neuropathic states.
Adult male SD rats (Harlan, Italy, 150-200 g weight) were used. Animals were treated with 25 mg/kg i.v. bolus of 2′,3′-dideoxycytidine, an inhibitor of nucleoside reverse transcriptase used for AIDS therapy that in rodents induces a peripheral neuropathy resulting in allodynic responses to mechanical stimuli. Symptoms severity peaks between 5 to 10 days after administration (Joseph, E. K. et al. —Pain 107 (2004) 147-158). Ten days after administration of ddC, as an intravenous (i.v.) bolus, test substances were administered every day, once a day or b.i.d for 4 weeks. Dosing was withheld in those days in which allodynic tests were performed, and lasted for 24 h and 48 h.
NT-11624 was dissolved in distilled water and was orally by gavage administered as follows • Group 1: 100 mg/kg b.i.d. for 14 days, followed by 50 mg/kg b.i.d. for 7 days, then 50 mg/kg u.i.d. for 7 days. • Group 2: 50 mg/kg b.i.d. for 28 days.
Pregabalin (3B Pharmachem (Wuhan) International Co.) was dissolved in 1% CMC (carboxymethylcellulose) and orally administered at the dose of 15 mg/kg b.i.d. for 28 days.
Thresholds for mechanical allodynia were measured using an electronic Von Frey apparatus. […] After 4 week drug administration, additional tests were performed beyond the 60 min point, at 4, 8, 24, 48 and 56 h. Results represent the mean (±S.E.M.) of mechanical thresholds expressed in grams.
Drugs: The following substance was used: NT-11624 (batch No. 0000104580 supplied by Brane Discovery Srl, Gerenzano Italy). NT-11624 was dissolved in distilled water and given p.o. every day, except in those days in which allodynic tests were performed and lasted for 24 h, 48 h and 56 h (i.e. days 1, 3, 7, 10, 14, 21, 28).
The following groups of treatment were utilized: • NT-11624 (Group 1): rats received 100 mg/kg b.i.d. of NT-11624 for 14 days, then 50 mg/kg b.i.d. for 7 days, then 50 mg/kg u.i.d. for 7 days. • NT-11624 (Group 2): rats received 50 mg/kg b.i.d. for 28 days • Pregabalin: rats received 15 mg/kg b.i.d. for 28 days
Administration volume was 10 ml/kg body weight. Pregabalin [3B Pharmachem (Wuhan), International Co] was dissolved in CMC 1% (carboxymethylcellulose, Sigma-Aldrich, Italy), and orally given as described before. Control rats received vehicle only.
ddC intravenous injection: ddC was dissolved in saline to a concentration of 25 mg/kg (1 ml) and was administered i.v. into the rat tail vein. Control rats were treated with an equal volume of saline i.v.
The administration of ddC produces dose-dependent mechanical hypersensitivity and allodynia peaking in severity between 5-10 days after the administration. The test is usually performed at day 10.
Von Frey test: Each animal was placed in a chamber with a mesh metal floor covered by a plastic dome that enabled the animal to walk freely, but not to jump. The mechanical stimulus was then delivered in the mid-plantar skin of left hind paw using an electronic Von Frey apparatus (37400 Dynamic Plantar Aesthesiometer; Ugo Basile, Comerio, Varese, Italy). The cut-off was fixed at 50 g, while the increasing force rate (ramp duration) was settled at 20 sec. […] At day 28, additional tests were performed at 4, 8, 24, 48 and 56 h after drug administration. Results represent the mean (±S.E.M.) of mechanical thresholds expressed as grams.

[3] = MIA rats, 14 days b.i.d. p.o. (NT-11624 150 mg/kg, tramadol 40 mg/kg)
[4] = MIA rats, groups later treated 14 days b.i.d. p.o. (NT-11624 150 mg/kg, tramadol 40 mg/kg)
[5] = MIA rats, single administration groups (saline 14 days b.i.d. first)
[6] = MIA rats, single administration on saline b.i.d., before the single p.o. dose (NT-11624 150 mg/kg, tramadol 40 mg/kg)
[7] = MIA rats, single p.o. administration on saline b.i.d. (NT-11624 150 mg/kg, tramadol 40 mg/kg)
[8] = Group 1 down-titration schedule, p.o.
[9] = Group 2: 50 mg/kg b.i.d. p.o. for 28 days, 50 mg/kg
[10] = MIA rats, 14 days b.i.d. p.o., NT-11624 150 mg/kg
[11] = 15 mg/kg b.i.d. p.o. for 28 days

SMILES | Mechanical threshold, after last treatment 15 min [1, 3] [g] | Mechanical threshold, after last treatment 30 min [1, 3] [g] | Mechanical threshold, after last treatment 45 min [1, 3] [g] | Mechanical threshold, before treatment, first day basal [1, 4] [g] | Mechanical threshold, before treatment, first day basal [1, 5] [g] | Mechanical threshold, before last treatment, pre-dose [1, 6] [g] | Mechanical threshold, after last treatment 15 min [1, 7] [g] | Mechanical threshold, after last treatment 30 min [1, 7] [g] | Mechanical threshold, after last treatment 45 min [1, 7] [g] | Effect of a single oral dose on mechanical threshold (in words) [1] | Antihyperalgesic activity after the last treatment (in words) [1] | Reversal of ddC-induced neuropathy (mechanical threshold, von Frey) [2] | other results
COc1cccc(C2(O)CCCCC2CN(C)C)c1 (centres unmarked) [TRAMADOL, tramadol, reference compound] | 38.8 ± 2.2 | 36.4 ± 2.9 | 32.8 ± 3.4 | 59.2 ± 3.1 | 62.8 ± 3.0 | 25.5 ± 3.8 | 39.2 ± 4.1 | 43.4 ± 3.6 | 36.2 ± 3.4 | significant anti-hyperalgesic effect from 15 to 60 min | only a weak antihyperalgesic activity 15 and 30 min after the last treatment | – | Mechanical threshold, after last treatment 60 min ([1]; MIA rats, single p.o. administration on saline b.i.d., tramadol 40 mg/kg): 27.2 ± 3.4 g
O=C1CN2C(=O)CCC2N1 (centres unmarked) [NT-11624, 2,5-dioxohexahydro-1H-pyrrolo[1,2-a]imidazole] | 72.6 ± 4.1 | 75.0 ± 2.2 | 70.5 ± 2.7 | 63.5 ± 3.2 | 60.4 ± 2.7 | 23.9 ± 3.5 | 33.8 ± 3.1 | 39.3 ± 2.8 | 26.2 ± 3.1 | significant increase of mechanical threshold only at 30 min | completely protects from MIA-induced hyperalgesia up to 24 h | fully reverts | Onset of anti-allodynic effect ([2]; Group 1: 100 mg/kg b.i.d. 14 days, then 50 mg/kg b.i.d. 7 days, then 50 mg/kg u.i.d. 7 days, p.o.): starting from the third day; also recorded: as of day 3; Anti-allodynic effect 56 h from the last administration [2, 8]: still significant protection; also recorded: robust effect; Anti-allodynic effect at day 14 [2, 8]: complete protection; Anti-allodynic effect up to 48 h from the last administration (day 28) [2, 8]: full reversal of allodynia; Effect up to 24 h after the last administration ([2]; Group 2: 50 mg/kg b.i.d. p.o. for 28 days): clearly evident; Effect 48 h after the last administration [2, 9]: still significant; also recorded: still evident; Onset of anti-pain response [2, 9]: starting from day 10; also recorded: as of day 10; Anti-hyperalgesic effect 15 min until 48 h after last dosing ([1]; 150 mg/kg b.i.d. oral, 2 weeks): lasted throughout the experiment; Paw pressure hyperalgesic response at the pre last administration test ([1]; 75 and 150 mg/kg b.i.d. oral, 2 weeks, 13 h after the evening administration of the previous day): significant reduction of the hyperalgesia; Mechanical threshold, before last treatment, pre-dose [1, 3]: 65.1 ± 2.5 g; Mechanical threshold, after last treatment 60 min [1, 10]: 60.6 ± 4.2 g; Mechanical threshold, after last treatment 24 h [1, 10]: 55.3 ± 4.8 g; Mechanical threshold, after last treatment 48 h [1, 10]: 43.9 ± 4.0 g; Mechanical threshold, after last treatment 72 h ([1]; MIA rats, 14 days b.i.d. p.o., NT-11624 150 mg/kg, mean of 4 rats): 34.8 ± 3.7 g; Antihyperalgesic activity at 48 h after the last treatment ([1]; NT-11624 150 mg/kg p.o., 14 days b.i.d.): statistically significant activity; Duration of beneficial effect after last dosing ([1]; after a 2 week oral b.i.d. treatment): at least 48 h
CC[C@@H](C(N)=O)N1CCCC1=O [levetiracetam, reference compound] | – | – | – | – | – | – | – | – | – | – | – | not | –
CC(C)C[C@H](CN)CC(=O)O [Pregabalin, reference compound] | – | – | – | – | – | – | – | – | – | – | – | – | Onset of effect on allodynic threshold ([2]; 15 mg p.o. b.i.d.): modest but significant effect already from day 1; Day of peak effect [2, 11]: 14 days; Effect of the last administration on day 28 [2, 11]: moderate beneficial effect that disappeared after 8 h
